Experimental data reported in EP4790048A1, “S1PR4 REGULATOR COMPOUND FOR AUTOIMMUNE DISEASE TREATMENT AND APPLICATION THEREOF” (Shengyuan Zetong (Shanghai) Pharmaceutical Co., Ltd, priority 2023, dated 2025).
Entries after “also recorded” stand apart in the source; their conditions may differ.

Tests used:
Format in all cases: in vivo
BALB/c mice [1] = assay: DSS-induced acute ulcerative colitis in mice (Example 6)
Experimental: From Day 0 to Day 14 of the experiment, the mice were weighed daily and their blood and stool conditions were observed, scored and recorded according to the following table (Table 1). Random grouping was performed on Day 1, and modeling was conducted from Day 1 to Day 7. All groups except the Control group were given 3.5% DSS water daily. Re-grouping was performed on Day 8. The Control group and Model group received no medication and were given tap water; the other groups were administered intragastrically with 1 mg/kg, 3 mg/kg, 9 mg/kg, and SASP (Sulfasalazine or Salicylazosulfapyridine) 500 mg/kg, respectively. On Day 15, blood and colon samples were collected, colon length was measured, and a 1-2 cm segment of the colon was fixed with formaldehyde.
(§1) • BALB/c mice, male, 20-22 g • Dextran sulfate sodium MW: 36,000-50,000 (DSS) • 30 1 mg/kg, 3 mg/kg, 9 mg/kg, SASP (500 mg/kg) indicators were observed.
(§2) (1) Clinical Symptom Score: The mice were weighed daily and their blood and stool were observed during the experiment for DAI scoring, which was graded and recorded according to the following table (Table 1).
(§3) (2) After the experiment, the colon was removed, its length measured and weight recorded. The colon-to-body weight index (colon weight/body weight × 100%) and colon swelling rate (colon weight/length × 100%) were calculated.
(§4) Colonic tissue approximately 1 cm from the anal margin (0.5 cm) and ileocecal region tissue were collected for histopathological examination. After H&E staining, the tissues were scored under single-blind conditions to evaluate the level of distal colon inflammation and tissue damage; scoring was performed according to the Ameho criteria and calculated as follows: • Score 0: No abnormal findings in the texture. • Score 1: Mild inflammatory infiltration of the mucosa and/or submucosa (mixed with neutrophils), submucosal edema, punctate mucosal erosion, accompanied by capillary proliferation. The muscularis mucosae is intact. • Score 2: Changes of Score 1 account for more than 50%. • Score 3: Obvious inflammatory infiltration and edema (neutrophils are often predominant); ulcers usually penetrate the muscularis mucosae to reach the submucosa. There is little inflammatory cell infiltration in the muscularis propria and no muscle necrosis. • Score 4: Changes of Score 3 account for more than 50%. • Score 5: Large confluent ulcers with coagulative necrosis, massive neutrophil infiltration at the margins and few monocytes. Necrotic tissue penetrates the muscularis propria. • Score 6: Changes of Score 5 account for more than 50% of the specimen.
The fence function of Occludin separates the apical and basolateral sides of the epithelial cell plasma membrane, restricting the free flow of lipids on the cell membrane, facilitating the formation of cell polarity, maintaining the impermeability and rigidity of the intestinal mucosa, and preventing the entry of pathogenic microorganisms. The barrier function of Occludin can regulate the transport of small molecules and maintain tissue homeostasis. […]

BALB/c mice [2] = assay: DSS-induced chronic ulcerative colitis in mice (Example 6)
Excerpt: BALB/c mice were acclimatized for 7 days before the experiment. From Day 7 to Day 50 of the experiment, the mice were weighed daily and their blood and stool conditions were observed, scored and recorded according to the following table (Table 1). After random grouping, all groups except the Control group were given free access to 2-3% DSS solution for modeling from Day 7 to Day 14, while the Control group received normal drinking water during the same period. One cycle lasted 14 days and was repeated 3 times. Re-grouping was performed at the start of the final cycle to initiate drug administration. The Control group and Model group received no drug but the same solvent. The other groups were intragastrically administered 1 mg/kg, 3 mg/kg, 9 mg/kg, and SASP 500 mg/kg respectively. On Day 45, blood and colon samples were collected, colon length was measured, and a 1-2 cm colon segment was fixed with formaldehyde.
as §1, §2, §3, §4
The fence function of Occludin separates the apical and basolateral sides of the epithelial cell plasma membrane, restricting the free flow of lipids on the cell membrane, facilitating the formation of cell polarity, maintaining the impermeability and rigidity of the intestinal mucosa, and preventing the entry of pathogenic microorganisms. The barrier function of Occludin can regulate the transport of small molecules and maintain tissue homeostasis. The expression and distribution of related proteins are detected by immunohistochemistry.
During modeling, the body weight of mice in the control group increased steadily. In the model group, during the first modeling period, mice were given 3% DSS drinking water ad libitum for 7 days, followed by tap water ad libitum for 7 days. On Day 4 of modeling, the body weight of mice began to decrease generally, reaching the lowest point on Day 8, and then started to rise. During the second modeling period, mice were given 2% DSS drinking water ad libitum for 7 days, followed by tap water ad libitum for 7 days. […]

SD rats = assay: MIA-induced osteoarthritis (OA) model in rats
Experimental: SD rats, approximately 200 g, male. Purchased from Shanghai Bikai Animal Co., Ltd. Adaptive feeding was conducted for about 7 days.
3.1.1 Anesthesia: the rat was placed into the anesthesia box, the O2 gas source and the gas delivery pump were turned on, and the gas adjustment knob was rotated to set the ratio of O2 to isoflurane at 8:2. The anesthesia depth knob was adjusted: first the indicator was turned to 3 to induce deep anesthesia in the rat; during the subsequent surgical procedure, the indicator was adjusted to 1.5 to maintain anesthesia. The three-way valve was opened to deliver gas into both the anesthesia box and the rat anesthesia mask.
The syringe needle was inserted at a 45° angle to the plateau along the lateral side of the patellar ligament, as shown in the figure below. The Control group is injected with 50 µl of 0.9% sterile normal saline, while the other groups are injected with 50 µl of sterile normal saline containing 3 mg of MIA. After the procedure, the rat was removed, placed in a breeding cage, and irradiated with an incandescent lamp to help restore body temperature until the rat recovers from anesthesia.
The Control group was administered 5% DMSO + 35% PEG400 + 60% normal saline. The compounds were dissolved in a system consisting of 5% dimethyl sulfoxide (DMSO), 35% polyethylene glycol 400 (PEG 400), and 60% normal saline. The drug solutions were prepared on the evening one day before administration.
The rats were acclimated for 1 week and randomly divided into groups, with a total of 10 rats. The Control group was administered 5% DMSO + 35% PEG400 + 60% normal saline, while the other groups were given the test compounds dissolved in 5% DMSO + 35% PEG400 + 60% normal saline.
3.4.1. From Day 1 to Day 14 of the experiment, the rats were administered intragastrically once daily, with a gavage volume of 5 mL/kg. The Control group and Model group were given 5% DMSO + 35% PEG400 + 60% normal saline throughout the experiment, while the other groups were administered the corresponding drugs.
On Day 7 and Day14 of the experiment, behavioral and joint pain tests were performed on the rats. To minimize confounding factors, the tests were conducted 1 hour after administration at a fixed time, preventing variations in the rats' condition at different time points from affecting the experimental results. The rats were allowed to acclimate to the environment for 20 minutes before the start of the experiment. • (1) Observation of walking distance and rearing times within five minutes: the dimensions of the resin box were measured and a paper sheet of the corresponding size was prepared. 1 cm × 1 cm grids were drawn on the paper sheet. The paper sheet was sealed with a transparent tape to prevent damage from rat excrement. Then the paper sheet with 1 cm × 1 cm grids was placed into the transparent resin box, ensuring a flat bottom. A camera device was used to record the walking process and trajectory of the rat within 5 minutes, and the walking distance and rearing times of the rat were counted. • (2) Joint Pain Assessment: After fixing the rat and allowing it to calm down, its knee joint was gently bent. […] The knee joint pain severity in rats is reflected by the scores of leg withdrawal and vocalization. The joint pain assessment was performed every 5 seconds for a total of 5 times.
On Day 15 of the experiment, the rats were anesthetized, and blood was collected from their eyeballs. The serum was left to stand overnight at 4°C, centrifuged at 3600 rpm for 15 minutes at 4°C. The serum was aspirated and stored at -80°C. The rats were sacrificed by cervical dislocation. An incision was made along the knee joint on ice to remove fur, muscle, and other tissues. For each group, 5 rats were used; bilateral knee joints were dissected, and the color, roughness, and integrity of the femoral condyle surface were observed. The knee joint cartilage was then harvested and cryopreserved at -80°C. […]

[3] = DAY7, diclofenac sodium 2.5 mg/kg, vs Model group

Structure (SMILES)	body weight recovery (BALB/c mice [1]; 30 at 3 mg/kg, SASP at 500 mg/kg, vs model group)	daily DAI score (BALB/c mice [1]; 30 treatment groups, SASP 500 mg/kg, vs model group)	colon pathological changes (H&E staining) (BALB/c mice [1]; SASP 500 mg/kg)	survival rate (BALB/c mice [1]; SASP 500 mg/kg intragastric from Day 8, 8 mice, model group 75%)	Occludin expression in colonic mucosa (immunohistochemistry) (BALB/c mice [1]; vs Model group)	daily DAI score (BALB/c mice [2]; 30 treatment group, SASP 500 mg/kg, vs model group)	body weight recovery (BALB/c mice [2]; 30 treatment groups (1, 3, 9 mg/kg), SASP 500 mg/kg, vs model group)	colon pathological changes (H&E staining) (BALB/c mice [2]; SASP 500 mg/kg)	Occludin expression in colonic mucosa (immunohistochemistry) (BALB/c mice [2]; vs Model group)	five-minute walking distance (SD rats; [3])	pain index (SD rats; [3])	gross observation of knee joint femoral condyle cartilage (SD rats; Day 15 dissection, 5 rats per group)	serum IL-10 level (SD rats; Elisa, vs Model group)	OARSI score (severity of knee osteoarthritis) (SD rats; diclofenac sodium 2.5 mg/kg, vs Model group)	Safranin O-Fast Green staining of knee joints (SD rats; vs Model group)
O=C(O)c1cc(/N=N/c2ccc(S(=O)(=O)Nc3ccccn3)cc2)ccc1O [SASP, Sulfasalazine, reference compound]	faster body weight recovery with a greater rebound amplitude	decreased more rapidly	still had inflammatory cell infiltration, but to a lesser extent than the Model group	87.5%	the expression of Occludin was increased	decreased more rapidly	recovered rapidly and increased substantially	inflammatory cell infiltration, but to a lesser extent than the Model group	the expression of Occludin was increased						
O=C(O)Cc1ccccc1Nc1c(Cl)cccc1Cl [diclofenac sodium, reference compound]										increased significantly	significantly decreased	knee cartilage in most rats became smooth and glossy; also recorded: cartilage of most rat knee joints became smooth and bright	significantly increased	significantly milder than that in the Model group	enhanced Safranin O staining
